Among the data in publication PMC4648050, “Discovery of Inhibitors of Trypanosoma brucei by Phenotypic Screening of a Focused Protein Kinase Library” (Chemmedchem, 2015) are remaining activity values, retold here.

Holding throughout (format): biochemical, human/mammalian
What all share (details): compound at 10 μM, read-out: % of activity respect of the control

One test deals with ROCK 2 (Homo sapiens, UniProt O75116). The test is described as follows: Kinase panel: ROCK 2. Here is the method:
(§1) The DDU kinase-focused compound set contains lead-like scaffolds that are designed to target protein kinases; they have kinase hinge binding motifs. Four of the 1H-imidazopyrazinones were screened against a human/mammalian kinase panel at the University of Dundee (http://www.kinase-screen.mrc.ac.uk) at a concentration of 10 μM. At the time of testing the panel contained 79 mammalian kinases selected to provide a broad coverage of the mammalian kinome (∼500 kinases in the human genome).[3] None of the compounds were active against any of the kinases at 10 μM.

Another test concerns the target IR-HIS (Homo sapiens, UniProt P06213). The test is described as follows: Kinase panel: IR-HIS. Here is the method: as §1
A further test addresses CAMK1 (Homo sapiens, UniProt Q14012). Briefly: Kinase panel: CAMK1. Here is the method:
as §1

In another test the target is T1, BRSK2 (Homo sapiens, UniProt Q8IWQ3).
T1 sequence (Q8IWQ3 1-736): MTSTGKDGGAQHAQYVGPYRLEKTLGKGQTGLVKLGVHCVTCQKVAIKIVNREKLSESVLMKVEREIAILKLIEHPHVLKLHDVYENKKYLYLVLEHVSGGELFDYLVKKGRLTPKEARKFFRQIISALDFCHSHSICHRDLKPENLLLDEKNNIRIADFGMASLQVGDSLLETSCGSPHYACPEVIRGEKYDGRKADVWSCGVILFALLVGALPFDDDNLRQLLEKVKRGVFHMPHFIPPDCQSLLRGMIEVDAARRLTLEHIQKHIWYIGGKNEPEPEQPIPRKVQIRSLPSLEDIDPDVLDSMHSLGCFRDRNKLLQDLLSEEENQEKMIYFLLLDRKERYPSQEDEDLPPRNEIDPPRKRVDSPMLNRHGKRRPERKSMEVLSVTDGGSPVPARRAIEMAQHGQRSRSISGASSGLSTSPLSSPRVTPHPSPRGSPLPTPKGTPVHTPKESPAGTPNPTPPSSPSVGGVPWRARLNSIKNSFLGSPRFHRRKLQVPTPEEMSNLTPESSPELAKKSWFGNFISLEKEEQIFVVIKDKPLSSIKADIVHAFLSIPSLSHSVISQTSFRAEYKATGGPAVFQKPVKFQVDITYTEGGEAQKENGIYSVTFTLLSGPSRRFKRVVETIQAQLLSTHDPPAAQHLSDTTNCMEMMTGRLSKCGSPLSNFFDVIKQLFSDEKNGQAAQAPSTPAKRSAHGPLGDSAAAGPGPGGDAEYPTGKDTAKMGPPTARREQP
Briefly: Kinase panel: BRSK2. Here is the method:
as §1

In the next test the target is T2, TBK1 (Homo sapiens, UniProt Q9UHD2).
T2 sequence (Q9UHD2 1-729): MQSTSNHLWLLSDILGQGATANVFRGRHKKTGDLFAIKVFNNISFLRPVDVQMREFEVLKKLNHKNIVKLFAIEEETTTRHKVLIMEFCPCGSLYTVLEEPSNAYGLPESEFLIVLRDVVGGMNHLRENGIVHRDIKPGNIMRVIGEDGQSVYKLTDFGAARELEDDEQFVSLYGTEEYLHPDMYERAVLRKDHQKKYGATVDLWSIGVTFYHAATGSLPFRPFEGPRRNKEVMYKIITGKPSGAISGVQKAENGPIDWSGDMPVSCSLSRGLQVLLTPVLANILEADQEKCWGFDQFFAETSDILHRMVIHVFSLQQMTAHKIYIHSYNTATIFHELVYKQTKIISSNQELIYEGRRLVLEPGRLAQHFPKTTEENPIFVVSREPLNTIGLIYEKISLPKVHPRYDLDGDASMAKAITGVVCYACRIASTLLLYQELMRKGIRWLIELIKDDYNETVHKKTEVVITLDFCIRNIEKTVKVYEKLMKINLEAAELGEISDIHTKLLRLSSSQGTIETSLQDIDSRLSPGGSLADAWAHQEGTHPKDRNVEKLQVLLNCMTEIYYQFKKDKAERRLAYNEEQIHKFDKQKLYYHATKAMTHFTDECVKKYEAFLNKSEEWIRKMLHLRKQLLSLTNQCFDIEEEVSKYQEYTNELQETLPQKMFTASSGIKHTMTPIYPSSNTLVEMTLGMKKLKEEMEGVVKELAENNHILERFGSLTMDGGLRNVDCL
The test is described as follows: Kinase panel: TBK1. The procedure: as §1

The target in a further test is SmMLCK (Homo sapiens, UniProt Q15746). The test is described as follows: Kinase panel: SmMLCK. Here is the method: as §1
SmMLCK, sequence (Q15746 923-1914): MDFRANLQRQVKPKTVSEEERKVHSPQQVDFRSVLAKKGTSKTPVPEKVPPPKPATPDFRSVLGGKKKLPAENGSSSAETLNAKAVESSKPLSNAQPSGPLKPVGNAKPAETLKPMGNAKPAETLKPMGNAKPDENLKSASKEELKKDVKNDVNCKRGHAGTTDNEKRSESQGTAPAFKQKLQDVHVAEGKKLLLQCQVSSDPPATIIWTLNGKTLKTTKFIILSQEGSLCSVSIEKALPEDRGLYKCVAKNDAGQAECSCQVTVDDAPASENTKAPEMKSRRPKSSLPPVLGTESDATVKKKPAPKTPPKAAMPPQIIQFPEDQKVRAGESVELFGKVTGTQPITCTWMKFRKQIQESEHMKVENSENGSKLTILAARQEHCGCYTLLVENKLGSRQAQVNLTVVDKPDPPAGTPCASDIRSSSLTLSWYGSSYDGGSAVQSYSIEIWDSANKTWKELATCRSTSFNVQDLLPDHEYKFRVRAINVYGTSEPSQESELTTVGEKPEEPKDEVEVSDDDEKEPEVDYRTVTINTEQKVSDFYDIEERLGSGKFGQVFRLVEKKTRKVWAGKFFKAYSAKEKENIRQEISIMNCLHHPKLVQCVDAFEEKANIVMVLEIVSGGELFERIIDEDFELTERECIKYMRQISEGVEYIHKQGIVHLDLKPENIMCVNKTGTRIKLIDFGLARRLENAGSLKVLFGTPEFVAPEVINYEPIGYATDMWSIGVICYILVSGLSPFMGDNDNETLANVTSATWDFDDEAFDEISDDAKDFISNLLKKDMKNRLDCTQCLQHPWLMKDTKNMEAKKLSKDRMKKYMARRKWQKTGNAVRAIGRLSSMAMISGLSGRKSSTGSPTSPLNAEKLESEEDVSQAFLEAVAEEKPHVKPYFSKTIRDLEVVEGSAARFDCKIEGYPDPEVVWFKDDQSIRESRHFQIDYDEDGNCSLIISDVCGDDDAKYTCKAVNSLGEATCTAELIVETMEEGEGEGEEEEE
The target in a further test is T3, MST2 (Homo sapiens, UniProt Q13188).
T3 sequence (Q13188 1-491): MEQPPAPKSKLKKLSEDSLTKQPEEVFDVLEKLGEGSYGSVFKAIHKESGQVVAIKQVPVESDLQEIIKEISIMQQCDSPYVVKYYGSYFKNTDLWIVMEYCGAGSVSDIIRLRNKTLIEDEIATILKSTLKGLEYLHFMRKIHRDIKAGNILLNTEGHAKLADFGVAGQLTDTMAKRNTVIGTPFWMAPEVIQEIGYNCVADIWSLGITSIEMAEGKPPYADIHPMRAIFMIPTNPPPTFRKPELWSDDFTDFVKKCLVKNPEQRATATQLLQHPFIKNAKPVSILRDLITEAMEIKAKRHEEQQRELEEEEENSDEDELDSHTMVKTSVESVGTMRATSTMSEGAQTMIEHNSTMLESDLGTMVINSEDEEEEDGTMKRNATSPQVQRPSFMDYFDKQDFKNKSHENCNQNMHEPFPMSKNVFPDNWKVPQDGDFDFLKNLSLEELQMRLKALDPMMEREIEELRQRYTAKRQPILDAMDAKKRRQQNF
The test is described as follows: Kinase panel: MST2. Here is the method:
as §1

A further test has as its target MNK2 (Homo sapiens, UniProt Q9HBH9). Briefly: Kinase panel: MNK2. Here is the method: as §1

CAMK1, sequence (Q14012 whole entry): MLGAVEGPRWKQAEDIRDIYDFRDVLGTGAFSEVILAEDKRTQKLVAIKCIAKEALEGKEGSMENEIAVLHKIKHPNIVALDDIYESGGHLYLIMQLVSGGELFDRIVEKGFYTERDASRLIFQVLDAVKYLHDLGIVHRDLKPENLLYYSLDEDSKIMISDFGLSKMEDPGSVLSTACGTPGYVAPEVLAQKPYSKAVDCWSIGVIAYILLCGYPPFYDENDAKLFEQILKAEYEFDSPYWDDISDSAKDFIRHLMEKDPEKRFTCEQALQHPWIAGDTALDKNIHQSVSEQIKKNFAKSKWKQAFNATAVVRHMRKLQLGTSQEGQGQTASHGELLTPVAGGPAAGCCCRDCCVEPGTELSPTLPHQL
MNK2, sequence (Q9HBH9 whole entry): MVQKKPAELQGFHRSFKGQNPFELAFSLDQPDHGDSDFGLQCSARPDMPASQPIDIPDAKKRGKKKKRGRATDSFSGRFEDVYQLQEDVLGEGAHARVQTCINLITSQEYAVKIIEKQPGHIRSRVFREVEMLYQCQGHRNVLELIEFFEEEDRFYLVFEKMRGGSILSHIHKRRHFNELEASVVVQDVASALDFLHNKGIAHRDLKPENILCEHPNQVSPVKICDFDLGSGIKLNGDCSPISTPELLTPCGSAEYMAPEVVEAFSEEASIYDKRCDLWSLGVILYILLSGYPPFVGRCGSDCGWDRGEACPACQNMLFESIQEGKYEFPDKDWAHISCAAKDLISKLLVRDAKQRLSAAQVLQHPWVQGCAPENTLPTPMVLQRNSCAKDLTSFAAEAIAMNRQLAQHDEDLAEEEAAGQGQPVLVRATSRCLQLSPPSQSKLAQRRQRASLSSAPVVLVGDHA
ROCK 2, sequence (O75116 whole entry): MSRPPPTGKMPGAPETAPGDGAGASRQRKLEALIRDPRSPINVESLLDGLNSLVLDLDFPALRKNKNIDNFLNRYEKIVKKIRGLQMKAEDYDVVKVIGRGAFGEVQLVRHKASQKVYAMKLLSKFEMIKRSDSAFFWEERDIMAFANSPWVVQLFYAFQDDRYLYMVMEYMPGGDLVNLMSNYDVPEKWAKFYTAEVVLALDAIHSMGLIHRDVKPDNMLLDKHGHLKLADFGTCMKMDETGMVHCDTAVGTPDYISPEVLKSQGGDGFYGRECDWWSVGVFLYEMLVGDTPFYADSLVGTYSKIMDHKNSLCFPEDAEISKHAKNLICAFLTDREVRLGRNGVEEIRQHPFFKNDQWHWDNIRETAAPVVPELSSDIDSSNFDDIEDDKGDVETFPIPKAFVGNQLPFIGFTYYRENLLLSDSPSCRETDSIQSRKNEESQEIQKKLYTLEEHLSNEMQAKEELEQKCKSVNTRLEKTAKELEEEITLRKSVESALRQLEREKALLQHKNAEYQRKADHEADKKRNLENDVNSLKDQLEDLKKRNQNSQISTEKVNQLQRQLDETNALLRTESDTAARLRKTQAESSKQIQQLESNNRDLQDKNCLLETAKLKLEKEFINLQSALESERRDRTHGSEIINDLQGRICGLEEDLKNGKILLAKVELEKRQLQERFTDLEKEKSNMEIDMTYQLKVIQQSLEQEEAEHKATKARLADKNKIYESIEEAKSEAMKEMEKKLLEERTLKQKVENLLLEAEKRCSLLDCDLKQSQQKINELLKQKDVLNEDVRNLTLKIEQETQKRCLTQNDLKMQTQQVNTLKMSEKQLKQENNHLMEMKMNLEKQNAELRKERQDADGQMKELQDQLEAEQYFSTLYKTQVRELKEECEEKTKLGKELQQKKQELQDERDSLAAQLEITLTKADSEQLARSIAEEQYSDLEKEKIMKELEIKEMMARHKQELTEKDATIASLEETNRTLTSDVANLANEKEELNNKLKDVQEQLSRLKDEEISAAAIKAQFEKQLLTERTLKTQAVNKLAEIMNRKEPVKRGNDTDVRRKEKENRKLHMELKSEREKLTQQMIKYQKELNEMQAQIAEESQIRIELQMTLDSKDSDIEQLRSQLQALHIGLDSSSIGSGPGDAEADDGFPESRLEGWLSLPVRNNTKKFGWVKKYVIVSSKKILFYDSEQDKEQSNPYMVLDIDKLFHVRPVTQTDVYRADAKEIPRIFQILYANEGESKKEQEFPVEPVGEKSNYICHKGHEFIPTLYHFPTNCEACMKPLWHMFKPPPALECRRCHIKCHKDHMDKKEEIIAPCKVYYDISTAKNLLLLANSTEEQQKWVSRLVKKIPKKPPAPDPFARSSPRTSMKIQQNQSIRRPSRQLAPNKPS
IR-HIS, sequence (P06213 28-1382): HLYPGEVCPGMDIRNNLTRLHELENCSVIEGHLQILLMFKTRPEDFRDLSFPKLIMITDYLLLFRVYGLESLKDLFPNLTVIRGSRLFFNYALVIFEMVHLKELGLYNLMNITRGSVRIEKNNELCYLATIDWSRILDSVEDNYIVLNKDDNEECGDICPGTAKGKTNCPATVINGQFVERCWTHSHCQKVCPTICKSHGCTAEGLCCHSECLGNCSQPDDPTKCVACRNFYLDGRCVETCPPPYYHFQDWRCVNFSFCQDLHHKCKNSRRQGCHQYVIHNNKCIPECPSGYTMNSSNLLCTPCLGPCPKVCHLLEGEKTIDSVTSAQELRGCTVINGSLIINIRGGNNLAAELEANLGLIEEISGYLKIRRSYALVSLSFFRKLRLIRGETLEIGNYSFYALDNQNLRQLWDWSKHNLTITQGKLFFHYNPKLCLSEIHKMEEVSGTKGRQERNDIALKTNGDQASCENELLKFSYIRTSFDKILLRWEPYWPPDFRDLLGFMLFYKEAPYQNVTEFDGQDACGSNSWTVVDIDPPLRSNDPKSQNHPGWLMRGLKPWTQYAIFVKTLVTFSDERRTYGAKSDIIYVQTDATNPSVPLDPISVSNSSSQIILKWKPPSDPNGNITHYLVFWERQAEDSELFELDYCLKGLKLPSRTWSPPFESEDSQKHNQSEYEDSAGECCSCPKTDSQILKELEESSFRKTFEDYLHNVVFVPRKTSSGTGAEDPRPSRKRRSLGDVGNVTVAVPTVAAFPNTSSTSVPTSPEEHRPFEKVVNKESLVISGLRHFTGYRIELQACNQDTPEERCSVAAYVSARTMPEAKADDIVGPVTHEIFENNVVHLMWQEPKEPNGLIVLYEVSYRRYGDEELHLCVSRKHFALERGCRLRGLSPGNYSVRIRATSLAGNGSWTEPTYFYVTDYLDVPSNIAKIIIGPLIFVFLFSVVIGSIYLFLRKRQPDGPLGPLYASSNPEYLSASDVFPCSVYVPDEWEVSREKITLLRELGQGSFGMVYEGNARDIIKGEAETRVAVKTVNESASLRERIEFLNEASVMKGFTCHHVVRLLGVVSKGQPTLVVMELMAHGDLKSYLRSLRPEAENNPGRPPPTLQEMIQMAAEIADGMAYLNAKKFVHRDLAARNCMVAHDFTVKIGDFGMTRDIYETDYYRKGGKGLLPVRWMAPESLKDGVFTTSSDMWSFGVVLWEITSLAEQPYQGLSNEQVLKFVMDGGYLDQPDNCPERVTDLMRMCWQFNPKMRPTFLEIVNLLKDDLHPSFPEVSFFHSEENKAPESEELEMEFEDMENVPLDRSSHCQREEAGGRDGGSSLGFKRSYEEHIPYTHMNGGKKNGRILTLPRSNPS

With `CC(c1ccccc1)n1c(=O)[nH]c2ncc(-c3ccc(F)cc3)nc21` (centres unmarked) [Compound 1], the remaining activity at 10 µM at ROCK 2 worked out at 105%; at IR-HIS, 88%; at CAMK1, 87%; on BRSK2 it was 82%; on TBK1 it was 95%; at SmMLCK it was 80%. Also, the figures for the remaining activity at 10 µM at MST2 and on MNK2 were 86% and 106%, respectively.
For `O=c1[nH]c2ncc(-c3ccc(F)cc3)nc2n1CC1CC1` [Compound 10], the remaining activity at 10 µM on ROCK 2 is 78%; on IR-HIS, 109%; at CAMK1, 83%; at BRSK2, 90%; on TBK1 it was 95%; at SmMLCK, 74%. The remaining activity at 10 µM is 92% at MST2 and 99% at MNK2.
Regarding `O=c1[nH]c2ncc(-c3ccc(F)cc3)nc2n1C1CCCCC1` [Compound 12, 1-Cyclohexyl-6-(4-fluorophenyl)-1H-imidazo[4,5-b]pyrazin-2(3H)-one], the remaining activity at 10 µM on ROCK 2 was 84%; on IR-HIS, 119%; at CAMK1 it was 88%; at BRSK2, 100%; at TBK1 it was 92%; at SmMLCK, 89%. Further, the remaining activity at 10 µM on MST2 turned out to be 94%; on MNK2, 103%.
`C[C@H](c1ccccc1)n1c(=O)[nH]c2ncc(-c3ccccc3)nc21` [Compound 14, (R)-6-Phenyl-1-(1-phenylethyl)-1H-imidazo[4,5-b]pyrazin-2(3H)-one]: the remaining activity at 10 µM on ROCK 2 came out at 85%; at IR-HIS it was 93%; at CAMK1, 72%; at BRSK2, 72%; at TBK1, 100%; at SmMLCK, 64%. Besides, the values for the remaining activity at 10 µM at MST2 and at MNK2 were 78% and 97%, respectively.
